In patent US20200093123A1, “INSECTICIDAL EMULSION” (EVOLVA SA, priority 2016, published 2020):
Like-named read-outs stand apart in the source and are kept apart here.

Columns and labels:
Aedes aegypti larvae = test: Duration of larvicidal protection in treated water (Example 7); type: in vivo; conditions: 0.03% nootkatone/1% ethanol in water; larvae added 3-7 days after the water was treated; within 24 hours
mosquito pupae [1] = test: Mosquito pupae killing (Example 8, previous testing); type: in vivo, Aedes aegypti or Anopheles quadrimaculatus; conditions: 0.03% nootkatone/1% ethanol; within 24 hours
Procedure: Pupae preparation. Eggs of Aedes aegypti or Anopheles quadrimaculatus were purchased from a commercial supplier. Eggs were hatched in sterile MilliQ water and fed with finely ground Tetramin® fish food until they developed into pupae.
Pupae experiments. Clean, glass 600 mL beakers were washed and thoroughly rinsed prior to use as test containers. On testing days, pupae were removed from dishes used to grow larvae. Replicates of 10 pupae each were randomly assigned to glass beakers in a volume of 100 mL of sterile MilliQ water, and a treatment (see “Treatments” below) is added. A minimum of three control replicates and 4 treated replicates were tested on more than one day. The beakers were then covered lightly with Kimwipes®, secured by rubber bands to prevent escape of adults. The beakers were observed after 24 hours, and the numbers of live pupae, dead pupae, live adults, and dead adults were recorded.
Treatments. An aliquot of 0.5-1 mL of formulations such as those used in Example 1 was added to each test beaker. Control beakers consist of 100 mL of sterile MilliQ water.

mosquito pupae [2] = test: Prevention of adult emergence from pupae (Example 9, previous testing); type: in vivo, Aedes aegypti or Anopheles quadrimaculatus; conditions: 0.015% nootkatone/0.5% ethanol (v/v) in water for 48 hours
Source text: Pupae preparation. Eggs of Aedes aegypti or Anopheles quadrimaculatus were purchased from a commercial supplier. They were hatched in sterile MilliQ water and fed with finely ground TetraMin® fish food (fish meal, dried yeast, ground brown rice, shrimp meal, wheat gluten, feeding oat meal, fish oil, potato protein, dehulled soybean meal, soybean oil, algae meal, sorbitol, lecithin, monobasic calcium phosphate, ascorbic acid, yeast extract, inositol, niacin, L-ascorbyl-2-polyphosphate, riboflavin-5-phosphate, α-tocopherol-acetate, d-calcium pantothenate, thiamine mononitrate, pyridoxine hydrochloride, vitamin A palmitate, menadione sodium bisulfite complex, biotin, vitamin B12 supplement, cholcalciferol, manganese sulfate monohydrate, zinc sulfate monohydrate, ferrous sulfate monohydrate, cobalt acetate) until they developed into pupae.
Pupae experiments. Clean, glass 600 mL beakers were washed and thoroughly rinsed prior to use as test containers. On each of four testing days, pupae were removed from dishes used to grow larvae. Replicates of 10 pupae each were randomly assigned to glass beakers in a volume of 100 mL of sterile MilliQ water, and a treatment (see “Treatments” below) is added. The beakers are then covered lightly with Kimwipes® and secured by rubber bands to prevent escape of adults. […]
Treatments. […]

[3] = tested on: Aedes aegypti New Orleans strain adults; type: in vivo
Procedure: (§1) Method: Nootkatone was solubilized in acetone to a concentration of 1%, 0.607%, 0.368%, 0.224%, 0.136%, 0.082%, and 0.05%. 0.5 mL of solution was dispensed into a 5 cm diameter glass Petri dish for each replicate to be tested, using a fume hood and appropriate personal protective equipment. Liquid was dispensed to ensure that the entire base of the dish was covered with solution. Dishes were transferred to an orbital shaker set at a speed of 200 revolutions per minute. The dishes were shaken for 15 minutes to ensure even distribution on the surface of the plate. Control dishes were prepared in the same way using 0.5 mL of acetone without nootkatone. Dishes were allowed to dry for 4 hours before use. Dishes were stored at 4° C. until use. Groups of 10 adult female mosquitoes, 2-5 days old, were gently aspirated into a transfer pot system, and were then gently tapped out onto the surface of the treated or control Petri dishes. Although attempts are made to have groups of exactly 10 mosquitoes, group size could vary. Groups of more than 15 mosquitoes were excluded from testing, due to overcrowding. The opening to the dishes through which the mosquitoes were introduced was covered with parafilm to prevent escape. After 30 minutes of exposure to the Petri dishes, mosquitoes were transferred to paper cups for additional observation. They were supplied with 10% sucrose solution ad libitum. Three replicates, or 30 total adult female mosquitoes were tested for each concentration of nootkatone in acetone, and for the acetone-only controls. The mosquitoes tested were either the Aedes aegypti New Orleans strain, or Anopheles gambiae Kisumu strain.
(§2) Observation Methods: • a. […] Definitions of “Alive”, “Knockdown (KD)”, and “Dead” are as defined above.

[4] = tested on: Anopheles gambiae Kisumu strain adults; type: in vivo
Procedure: as §1, §2

[5] = tested on: yellow fever mosquitoes (Aedes aegypti) adults; test: whole plant or invertebrate; type: in vivo; conditions: 1% w/v nootkatone in ethanol dried on filter paper, mortality reached at 24 hours
Procedure: (§3) Method: Nootkatone was solubilized in ethanol to a concentration of 1% w/v. The nootkatone solution, or solvent (ethanol) alone as a negative control, was applied directly to filter paper using a micropipette, in an amount of 1 mL for a 9 cm filter paper disc. Filter papers were allowed to dry completely before being cut to the appropriate size prior to the start of the test. Treated and untreated filter papers were cut so that they covered the bottom of a suitable container for each test species (see Table No. 4, below). At each observation period, arthropods were classified as alive, knocked down (KD) or dead.
as §2

biting midges = test: Nootkatone residue on filter paper (Example 13); type: in vivo, biting midge; conditions: 1% w/v nootkatone in ethanol dried on filter paper; mortality reached at 24 hours
Procedure: as §3, §2

fire ants = test: Nootkatone residue on filter paper (Example 13); type: in vivo, fire ant
Procedure: as §3, §2

[6] = tested on: Asian tiger mosquitoes (Aedes albopictus); test: Nootkatone residue on filter paper (Example 13); type: in vivo; conditions: 24 h
Procedure: as §3, §2

[7] = tested on: common malaria mosquitoes (Anopheles quadrimaculatus); test: Nootkatone residue on filter paper (Example 13); type: in vivo; conditions: 24 h
Procedure: as §3, §2

[8] = tested on: southern house mosquitoes (Culex quinquefasciatus); test: Nootkatone residue on filter paper (Example 13); type: in vivo; conditions: 24 h
Procedure: as §3, §2

deer ticks = test: Nootkatone residue on filter paper (Example 13); type: in vivo, deer tick; conditions: 1% w/v nootkatone in ethanol dried on filter paper; at 72 hours
Procedure: as §3, §2

aphids = test: Nootkatone residue on filter paper (Example 13); type: in vivo, aphid; conditions: 1% w/v nootkatone in ethanol dried on filter paper; mortality reached at 24 hours
Procedure: as §3, §2

termites = test: Nootkatone residue on filter paper (Example 13); type: in vivo, termite; conditions: 1% w/v nootkatone in ethanol dried on filter paper; at 72 hours
Procedure: as §3, §2

[9] = partially soluble in water; cited from earlier work
[10] = rats; cited from earlier work
[11] = tested on: Aedes aegypti adult female mosquitoes; test: Arm over cage contact repellency, geraniol/co-solvent formulations (Example 18); type: in vivo; conditions: about 0.3 mL on collagen membrane aged one hour; 5 minute count; average of 4 replicates
Procedure: Twenty five Aedes aegypti adult female mosquitoes were introduced into a 1 ft×1 ft×1 ft cage. The mosquitoes were starved for at least 2 hours before repellency testing. The test formulation or control substance (see “Treatments”) was applied at a rate of approximately 0.3 mL onto a dampened collagen membrane (2.5 inches by 6 inches) to mimic the effect of skin, and the membrane was allowed to age for one hour while resting on a damp cloth. An untreated, dampened collagen membrane was placed on a mesh opening at the top of the test cage, and a researcher's arm was suspended -1/4 inch above the membrane to act as an attractant. The numbers of landings and probings of the untreated membrane were counted during a 5 minute period, and these counts were used as the baseline level of activity for that specific replicate of mosquitoes. Immediately after the baseline count, an aged, treated membrane was placed on top of the cage, and the numbers of landings and probings of the treated membrane were counted during a 5 minute period for the same replicate of mosquitoes. […] Repellency was calculated as one minus the ratio of the average number of probings or landings using the treated membrane divided by the average number of probings or landings using the untreated membrane from the same cages over the same four replicates of mosquitoes. […]

For `C=C(C)[C@@H]1CCC2=CC(=O)C[C@@H](C)[C@]2(C)C1` [nootkatone], the larvae killed (Aedes aegypti larvae) was 100%, the “pupae died, average” value (mosquito pupae [1]) was 94% and the “pupae died, one experiment” value (mosquito pupae [1]) was 93%. For the same compound, the “pupae died, second day of testing” value (mosquito pupae [1]) was 95%, the “surviving adults eclosed from pupae” value (mosquito pupae [2]) was “no surviving adults” and the adults knocked down ([3]; residue of 0.5 mL 0.136% nootkatone in acetone on 5 cm glass dish, within 30 minutes) was 47%. For the same compound, the mortality ([3]; residue of 1% nootkatone in acetone, 30 minutes exposure, 24 hours after treatment) was 89%, the “nootkatone concentration required to obtain significant mortality” value ([3]; residue on glass dish, 30 minutes exposure, 24 hours after treatment) was 0.224% and the adults killed ([4]; residue of 0.082% nootkatone, 24 hours after treatment) was 50%. It also gave an adults knocked down ([4]; residue of 0.5 mL 0.082% nootkatone in acetone on 5 cm glass dish, within 30 minutes) of 41%, a mortality ([4]; residue of 0.607% nootkatone, 24 hours after treatment) of 100% and a mortality ([4]; residue of 1% nootkatone, 24 hours after treatment) of 100%. It also gave a mortality at 1 % strength [5] of 100%, a Mortality % (biting midges) of 100% and a killed (fire ants; 1% nootkatone dried on filter paper, within 24 hours) of 100%. The Mortality % (fire ants; 1% w/v nootkatone in ethanol dried on filter paper, at 72 hours (table, no asterisk)) was 100%, the mortality at 1 % strength [6] was 98% and the mortality at 1 % strength [7] was 98%. It also gave a mortality at 1 % strength [8] of 98%, a Mortality % (deer ticks) of 98% and a Mortality % (aphids) of 94%. It also gave a Mortality % (termites) of 90%.
In the case of `OCc1ccccc1` [benzyl alcohol], the solubility in water [9] is given as 4 g/100 ml and the LD50 [10] is given as 1200 mg/kg.
In the case of `CCN(CC)C(=O)c1cccc(C)c1` [20% DEET in ethanol, N,N-Diethyl-meta-toluamide], the repellency against landings [11] is reported as 98% and the “repellency against probings (bites)” value [11] is reported as 100%.
